Data set [1] has as its target T1, Sodium/glucose cotransporter 2 (Homo sapiens, UniProt P31639).
T1 sequence (P31639 whole entry): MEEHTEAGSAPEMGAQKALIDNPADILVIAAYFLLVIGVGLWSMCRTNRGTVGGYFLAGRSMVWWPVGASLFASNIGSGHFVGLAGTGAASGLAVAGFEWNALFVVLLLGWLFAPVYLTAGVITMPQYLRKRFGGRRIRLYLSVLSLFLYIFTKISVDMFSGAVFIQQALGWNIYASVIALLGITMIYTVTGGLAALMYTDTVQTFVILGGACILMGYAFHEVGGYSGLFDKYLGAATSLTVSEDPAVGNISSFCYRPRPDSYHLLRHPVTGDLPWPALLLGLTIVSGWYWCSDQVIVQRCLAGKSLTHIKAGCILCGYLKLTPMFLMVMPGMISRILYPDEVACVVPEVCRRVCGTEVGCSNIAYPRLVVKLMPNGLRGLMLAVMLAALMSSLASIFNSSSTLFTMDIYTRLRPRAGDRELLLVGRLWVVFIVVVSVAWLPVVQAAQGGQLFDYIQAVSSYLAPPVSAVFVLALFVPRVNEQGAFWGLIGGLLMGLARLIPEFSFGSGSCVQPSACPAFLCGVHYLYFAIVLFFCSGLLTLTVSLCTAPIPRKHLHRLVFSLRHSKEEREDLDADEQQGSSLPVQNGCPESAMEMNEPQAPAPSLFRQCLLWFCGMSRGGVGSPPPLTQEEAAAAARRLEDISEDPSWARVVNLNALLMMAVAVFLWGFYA
Put plainly: Competitive inhibition of human SGLT2 expressed in CHO-K1 cells assessed as inhibition of [14C]-alpha-methylglucoside uptake. The format is cell-based.

Data set [2] has as its system Hepatitis C virus. Description: Antiviral activity against HCV genotype 1a. The following applies: subtype 1a. The format is functional, organism-based, Hepacivirus hominis.
A short description of data set [3]: Half life of compound in human plasma in presence of CYP3A inhibitor ritonavir. The format is ADME, organism-based. The settings on record: with ritonavir (CYP3A inhibitor).
Data set [4] deals with Vascular endothelial growth factor receptor 2 (Homo sapiens, UniProt P35968). Description: Inhibition of VEGF2 receptor (unknown origin) by ELISA. In general terms: An ELISA detects its analyte on a solid surface through an enzyme-linked reagent.

Where a name gives a salt, the structure may show the parent alone.

Consider three molecules from ChEMBL document CHEMBL3779889, “Synthetic approaches to the 2014 new drugs” (Bioorg Med Chem, 2016).

Chain of Vascular endothelial growth factor receptor 2 (P35968 whole entry): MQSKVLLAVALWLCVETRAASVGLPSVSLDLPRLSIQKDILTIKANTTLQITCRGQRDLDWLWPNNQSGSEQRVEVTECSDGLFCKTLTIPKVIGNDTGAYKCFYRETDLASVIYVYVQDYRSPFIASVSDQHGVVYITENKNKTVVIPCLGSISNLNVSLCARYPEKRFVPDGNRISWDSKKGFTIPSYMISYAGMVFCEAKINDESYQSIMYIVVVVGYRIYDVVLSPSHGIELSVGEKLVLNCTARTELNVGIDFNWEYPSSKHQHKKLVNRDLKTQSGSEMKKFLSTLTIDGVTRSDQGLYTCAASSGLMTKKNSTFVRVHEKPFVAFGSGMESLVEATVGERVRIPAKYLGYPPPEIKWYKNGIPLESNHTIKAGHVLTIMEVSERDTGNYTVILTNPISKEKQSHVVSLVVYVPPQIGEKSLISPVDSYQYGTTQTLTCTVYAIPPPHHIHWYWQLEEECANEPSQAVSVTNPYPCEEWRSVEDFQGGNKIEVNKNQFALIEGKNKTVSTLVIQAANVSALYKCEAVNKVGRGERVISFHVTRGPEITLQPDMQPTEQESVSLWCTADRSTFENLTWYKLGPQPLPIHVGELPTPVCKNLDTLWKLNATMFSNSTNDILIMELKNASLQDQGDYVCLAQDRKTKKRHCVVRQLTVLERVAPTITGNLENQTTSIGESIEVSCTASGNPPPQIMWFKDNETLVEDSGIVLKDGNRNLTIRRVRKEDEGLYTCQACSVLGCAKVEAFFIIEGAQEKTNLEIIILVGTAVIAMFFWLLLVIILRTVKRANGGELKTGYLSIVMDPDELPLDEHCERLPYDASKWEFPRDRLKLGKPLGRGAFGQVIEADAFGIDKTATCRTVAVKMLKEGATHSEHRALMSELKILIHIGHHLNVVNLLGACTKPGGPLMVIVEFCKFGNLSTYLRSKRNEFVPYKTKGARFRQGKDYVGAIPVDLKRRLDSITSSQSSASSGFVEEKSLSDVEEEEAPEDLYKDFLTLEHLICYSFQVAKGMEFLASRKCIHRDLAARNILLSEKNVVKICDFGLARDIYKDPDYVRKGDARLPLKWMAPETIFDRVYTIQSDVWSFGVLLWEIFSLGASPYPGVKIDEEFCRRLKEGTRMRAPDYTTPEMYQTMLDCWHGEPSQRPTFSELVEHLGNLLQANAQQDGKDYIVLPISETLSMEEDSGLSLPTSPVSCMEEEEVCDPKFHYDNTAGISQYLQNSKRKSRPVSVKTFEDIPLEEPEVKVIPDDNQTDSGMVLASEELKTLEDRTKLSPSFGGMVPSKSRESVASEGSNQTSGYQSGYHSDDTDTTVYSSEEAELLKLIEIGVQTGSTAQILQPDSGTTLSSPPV

By Ki is commonly meant the equilibrium dissociation constant of an inhibitor or competing ligand from its target. As to `CCOc1ccc(Cc2cc([C@@H]3S[C@H](CO)[C@@H](O)[C@H](O)[C@H]3O)c(OC)cc2C)cc1`, the Ki in data set [1] is 1.1 nM.

One may read the EC50 as the concentration needed to bring the measured effect to its halfway point. By half-life is commonly meant the time in which the quantity being followed falls by half. `Cc1cnc(C(=O)N[C@H]2CCCCC/C=C\[C@@H]3C[C@@]3(C(=O)NS(=O)(=O)C3CC3)NC(=O)[C@@H]3C[C@@H](Oc4nc5ccccc5c5ccccc45)CN3C2=O)cn1.O.O` came in with an EC50 in data set [2] of 1 nM. The half-life in data set [3] was 330 min.

One may read the IC50 as the concentration at which inhibition is half-maximal. The low end stands for greater potency in that assay, the high end for weaker potency in that assay. In data set [4], `N#CC1(c2ccc(NC(=O)c3cccnc3NCc3ccncc3)cc2)CCCC1` [RIVOCERANIB MESYLATE] had a half-inhibitory concentration (IC50) of 1 nM. This counts as single-digit nanomolar.
